Results as given in ChEMBL document CHEMBL5370626, “Targeting the Subpocket Enables the Discovery of Thiadiazole-Pyridazine Derivatives as Glutaminase C Inhibitors” (ACS Med Chem Lett, 2023).
Activity calls are given as the source filed them. The rule behind the calls is not given here.

What was measured:
A549 [1] = assay: Antiproliferative activity against human A549 cells assessed as reduction in cell viability incubated for 72 hrs by Celltiter-glo assay; assay type: functional, cell-based; conditions: A549, 72 h
[2] = (§1) Inhibition of human recombinant GAC K320A mutant (73 to 598 residues ) expressed in Escherichia coli BL21 (DE3) cells incubated for 10 mins by fluorometric assay
[3] = molecular target: T1, Glutaminase kidney isoform, mitochondrial (Homo sapiens) (UniProt O94925); assay: Inhibition of GAC (unknown origin)
T1 sequence (whole entry): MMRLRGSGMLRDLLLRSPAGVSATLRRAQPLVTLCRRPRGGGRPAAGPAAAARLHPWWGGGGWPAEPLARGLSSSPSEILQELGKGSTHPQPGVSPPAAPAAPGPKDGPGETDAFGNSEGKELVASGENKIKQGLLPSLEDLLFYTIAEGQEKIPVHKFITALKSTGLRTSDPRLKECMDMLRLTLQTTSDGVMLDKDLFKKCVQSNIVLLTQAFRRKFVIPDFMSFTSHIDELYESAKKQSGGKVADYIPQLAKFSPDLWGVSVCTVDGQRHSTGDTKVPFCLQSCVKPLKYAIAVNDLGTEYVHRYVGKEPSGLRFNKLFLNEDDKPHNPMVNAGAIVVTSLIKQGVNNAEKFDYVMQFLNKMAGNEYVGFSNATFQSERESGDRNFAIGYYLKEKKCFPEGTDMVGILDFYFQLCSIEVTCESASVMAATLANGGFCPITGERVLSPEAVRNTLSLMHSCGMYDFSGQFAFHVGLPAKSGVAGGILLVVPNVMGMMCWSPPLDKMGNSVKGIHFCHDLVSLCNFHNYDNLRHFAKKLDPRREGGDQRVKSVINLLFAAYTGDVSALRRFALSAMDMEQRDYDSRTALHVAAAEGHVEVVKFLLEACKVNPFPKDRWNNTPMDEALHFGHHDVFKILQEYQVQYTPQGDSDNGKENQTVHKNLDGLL

Homo sapiens = species: Homo sapiens; assay: as §1
[4] = molecular target: T1, Glutaminase kidney isoform, mitochondrial (Homo sapiens); assay: Inhibition of human GAC in A549 cells assessed as induction of ROS level incubated for 16 hrs by DCFH-DA staining based flow cytometric analysis; assay type: cell-based; conditions: dose 100-1000 nM
[5] = molecular target: T1, Glutaminase kidney isoform, mitochondrial (Homo sapiens); assay: Inhibition of human GAC in A549 cells assessed as reduction in glutamate level at 100 to 1000 nM incubated for 16 hrs by colorimetric assay; assay type: cell-based; conditions: dose 100-1000 nM
A549 [6] = assay: Inhibition of colony formation in human A549 cells assessed as reduction of colony number measured after 4 days by crystal violet staining-based colony formation assay; assay type: functional, cell-based; conditions: dose 10-1000 nM, time 4.0 day
A549 [7] = assay: Antitumor activity against human A549 cells xenografted in Balb/c nude mouse assessed as tumor growth inhibition at 100 mg/kg, po administered once daily 24 days relative to control; assay type: functional; conditions: A549, 576 h, time 24 day, read-out: TGI

IC50 (A549 [1]) [µM]	EC50 [2] [µM]	Structure (SMILES)	also measured
0.0138	0.00989	O=C(Cc1cccc(C(=O)OCC2CCC2)c1)Nc1nnc(N[C@@H]2CCN(c3cccnn3)C2)s1	
0.368	0.00216	NC(=O)c1cccc(CC(=O)Nc2nnc(N[C@@H]3CCN(c4cccnn4)C3)s2)c1	
0.0604	0.00331	COc1cccc(CC(=O)Nc2nnc(N[C@@H]3CCN(c4cccnn4)C3)s2)c1	
0.37	0.0261	O=C(Cc1ccc2ccccc2c1)Nc1nnc(N[C@@H]2CCN(c3cccnn3)C2)s1	
0.732	0.00189	O=C(Cc1cccc(C(=O)O)c1)Nc1nnc(N[C@@H]2CCN(c3cccnn3)C2)s1	INH [3]: 1.48 nM; INH (Homo sapiens): 157 nM
0.0131	0.0093	O=C(Cc1cccc(Cc2ccccc2)c1)Nc1nnc(N[C@@H]2CCN(c3cccnn3)C2)s1	
0.00928	0.00403	CC(C)OC(=O)c1cccc(CC(=O)Nc2nnc(N[C@@H]3CCN(c4cccnn4)C3)s2)c1	inhibition [4]: Dose-Dependent Effect; inhibition [5]: Active; inhibition (A549 [6]): Dose-Dependent Effect
0.0188	0.0164	O=C(Cc1cccc(OC(F)(F)F)c1)Nc1ccc(CCCCc2nnc(NC(=O)Cc3ccccn3)s2)nn1 [TELAGLENASTAT]	inhibition in vivo at 100 mg/kg (A549 [7]): 34.5%
1.71	0.0124	O=C(Cc1ccc(CO)cc1)Nc1nnc(N[C@@H]2CCN(c3cccnn3)C2)s1	
1.06	0.00426	O=C(Cc1cccc(C(=O)NC2CCC(F)(F)CC2)c1)Nc1nnc(N[C@@H]2CCN(c3cccnn3)C2)s1	
0.00126	0.0928	O=C(Cc1cccc(OC(F)(F)F)c1)Nc1nnc(N[C@@H]2CCN(c3cccnn3)C2)s1	
1.01	0.00374	CCOC(=O)OCOC(=O)c1cccc(CC(=O)Nc2nnc(N[C@@H]3CCN(c4cccnn4)C3)s2)c1	
0.889	0.00155	CCOP(=O)(OCC)c1cccc(CC(=O)Nc2nnc(N[C@@H]3CCN(c4cccnn4)C3)s2)c1	
0.736	0.0021	N#Cc1cccc(CC(=O)Nc2nnc(N[C@@H]3CCN(c4cccnn4)C3)s2)c1	
0.0126	0.00325	CO[C@H](C(=O)Nc1nnc(N[C@@H]2CCN(c3cccnn3)C2)s1)c1ccccc1	
0.0129	0.000793	COC(=O)c1cccc(CC(=O)Nc2nnc(N[C@@H]3CCN(c4cccnn4)C3)s2)c1	
0.498	0.00901	O=C(Cc1cccnc1)Nc1nnc(N[C@@H]2CCN(c3cccnn3)C2)s1	
> 10	0.00968	O=C(Cc1cccc(P(=O)(O)O)c1)Nc1nnc(N[C@@H]2CCN(c3cccnn3)C2)s1	
0.0371	0.0375	Cc1ccccc1Oc1cccc(CC(=O)Nc2nnc(N[C@@H]3CCN(c4cccnn4)C3)s2)c1	
0.0604	0.00652	O=C(Cc1cccc(C(F)(F)F)c1)Nc1nnc(N[C@@H]2CCN(c3cccnn3)C2)s1	

The remaining lines, values behind:

Structure (SMILES)	IC50 (A549 [1]) [µM]	EC50 [2] [µM]	also measured
O=C(Cc1cccc(-c2nnn[nH]2)c1)Nc1nnc(N[C@@H]2CCN(c3cccnn3)C2)s1	> 10	0.00366	
O=C(Cc1cccs1)Nc1nnc(N[C@@H]2CCN(c3cccnn3)C2)s1	0.222	0.00518	
O=C(Cc1cccc(F)c1)Nc1nnc(N[C@@H]2CCN(c3cccnn3)C2)s1	0.3	0.00237	
O=C(Nc1nnc(N[C@@H]2CCN(c3cccnn3)C2)s1)C1(c2ccccc2)CC1	0.947	> 1	
O=C(Cc1cccc(C(=O)NC2CC(F)(F)C2)c1)Nc1nnc(N[C@@H]2CCN(c3cccnn3)C2)s1	1.07	0.008	
O=C(Cc1ccc(C(=O)O)cc1)Nc1nnc(N[C@@H]2CCN(c3cccnn3)C2)s1	4.72	0.0142	
CC(=O)OCOC(=O)c1cccc(CC(=O)Nc2nnc(N[C@@H]3CCN(c4cccnn4)C3)s2)c1	1.09	0.00356	
O=C(Cc1ccccc1)Nc1nnc(N[C@@H]2CCN(c3cccnn3)C2)s1	0.103	0.00342	
CCOC(=O)c1cccc(CC(=O)Nc2nnc(N[C@@H]3CCN(c4cccnn4)C3)s2)c1	0.103	0.00268	
O=C(Cc1ccco1)Nc1nnc(N[C@@H]2CCN(c3cccnn3)C2)s1	0.308	0.00745	
CC1(C)OB(c2cccc(CC(=O)Nc3nnc(N[C@@H]4CCN(c5cccnn5)C4)s3)c2)OC1(C)C	1.26	0.0082	
CS(=O)(=O)NC(=O)c1cccc(CC(=O)Nc2nnc(N[C@@H]3CCN(c4cccnn4)C3)s2)c1	> 10	0.00263	
O=C(Cc1cccc(C(=O)NCCF)c1)Nc1nnc(N[C@@H]2CCN(c3cccnn3)C2)s1	1.17	0.00313	
CN(C)C(=O)c1cccc(CC(=O)Nc2nnc(N[C@@H]3CCN(c4cccnn4)C3)s2)c1	1.83	0.00536	
O=C(CCc1ccccc1)Nc1nnc(N[C@@H]2CCN(c3cccnn3)C2)s1	0.744	0.0683	
O=C(Cc1cccc(B(O)O)c1)Nc1nnc(N[C@@H]2CCN(c3cccnn3)C2)s1	1.18	0.00567	
Cc1oc(=O)oc1COC(=O)c1cccc(CC(=O)Nc2nnc(N[C@@H]3CCN(c4cccnn4)C3)s2)c1	5.47	0.0038	
CN(C)C(=O)COC(=O)c1cccc(CC(=O)Nc2nnc(N[C@@H]3CCN(c4cccnn4)C3)s2)c1	> 10	0.00315	
COC(=O)c1ccc(CC(=O)Nc2nnc(N[C@@H]3CCN(c4cccnn4)C3)s2)cc1	0.0475	0.00431	
CNC(=O)c1cccc(CC(=O)Nc2nnc(N[C@@H]3CCN(c4cccnn4)C3)s2)c1	0.108	0.00454	
O=C(Cc1cccc(C(=O)OCC2CC2)c1)Nc1nnc(N[C@@H]2CCN(c3cccnn3)C2)s1	0.0514	0.0129	
O=C(Cc1cccc(O)c1)Nc1nnc(N[C@@H]2CCN(c3cccnn3)C2)s1	1.08	0.0017	
